The values below come from patent US9434725B2, “5-azaindazole compounds and methods of use” (priority 2012, dated 2016).

Structures can show the parent of a compound that is named as a salt. Where two headings read alike, the source gives them in different places. A value given as a limit tells only on which side of the number the result lay.

One experiment concerns the target PIM1 (Homo sapiens (Human), UniProt P11309). The experiment in a line: biochemical. Format: biochemical. Conditions: 10 μM ATP, 90 min, room temperature; read-out: PIM1 LC3K (KI). The method in brief: (§1)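 Read-out is microfluidic electrophoretic separation of phosphorylated from unphosphorylated fluorescent Pim peptide, with Ki calculated from conversion. Reactions ran 90 min at room temperature in HEPES pH 7.2 containing MgCl2, Tween 20 and DTT, ended by EDTA-containing buffer.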

The target of a further experiment is PIM2 (Homo sapiens (Human), UniProt Q9P1W9). The experiment in a line: Pim kinase binding activity, Caliper LC3000 microfluidic peptide phosphorylation assay, PIM2. Format: biochemical. Conditions: 10 μM ATP, 90 min, room temperature; read-out: PIM2 LC3K (KI). The method in brief:
as §1

A further experiment addresses PIM3 (Homo sapiens (Human), UniProt Q86V86). Briefly: Pim kinase binding activity, Caliper LC3000 microfluidic peptide phosphorylation assay, PIM3. Format: biochemical. Conditions: 10 μM ATP, 90 min, room temperature; read-out: PIM3 LC3K (KI). The method in brief:
as §1

Another experiment deals with BaF3 PIM1 cells. Briefly: In vitro cell proliferation potency assay (Cell Titer Glo), BaF3 PIM1 cells. Format: cell-based, murine. Conditions: Mus musculus, BaF3, BaF3 cells transfected with PIM1, incubated overnight; read-out: Prolif BaF3_PIM 1 (IC50).
In experiment [1] the test system is MM1.S (multiple myeloma) cells. Briefly: In vitro cell proliferation potency assay (Cell Titer Glo), MM1.S cells. Format: cell-based. Conditions: Homo sapiens, read-out: Prolif MM1S ATP (EC50). Here is the method:
BaF3 parental line was obtained from the DSMZ repository. BaF3 lines transfected with PIM1 or PIM2 were generated. Mouse IL-3 was purchased from R&D Systems. G418 was purchased from Clontech. Media for BaF3 parental line contained RPMI, 10% FBS, 2 mM L-Glutamine, 2 ng/mL mIL-3. Media for BaF3 PIM1 & 2 lines contained RPMI, 10% FBS, 2 mM L-Glutamine, […]. Media for MM1.S (multiple myeloma cells) line contained RPMI, 10% FBS, 2 mM L-Glutamine.
BaF3, a murine interleukin-3 dependent pro-B cell line, parental cells, BaF3 PIM1 cells, BaF3 PIM2 cells, and MM1.S (multiple myeloma) cells were seeded at 2 k/well, 5 k/well, 5 k/well, and 10 k/well respectively, in a 384-well plate, at 45 μL/well. Test compound was added at 5 μL/well. BaF3 cells (parental and transfected) were incubated overnight, while MM1.S cells were incubated for 72 hours at 37° C., 5% CO2. CELL TITER GLO® Reagent (Promega) was added at 50 μL/well, the plates were incubated for 30 minutes, and their luminescence read on an HT Analyst. IC50/EC50 values for the test compound were calculated.

[2] abbreviates: MM1.S, 72 h, MM1.S cells, 72 hours.

Sequence of PIM2 (Q9P1W9 whole entry): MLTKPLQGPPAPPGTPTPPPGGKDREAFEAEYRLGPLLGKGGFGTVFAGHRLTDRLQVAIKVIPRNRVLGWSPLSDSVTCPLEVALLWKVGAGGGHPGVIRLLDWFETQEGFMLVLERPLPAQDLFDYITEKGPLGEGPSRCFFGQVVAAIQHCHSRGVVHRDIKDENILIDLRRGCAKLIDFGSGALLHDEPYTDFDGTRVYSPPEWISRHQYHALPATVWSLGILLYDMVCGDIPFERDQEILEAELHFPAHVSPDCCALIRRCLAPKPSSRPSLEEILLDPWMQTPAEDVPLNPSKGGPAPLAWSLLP
Sequence of PIM1 (P11309 whole entry): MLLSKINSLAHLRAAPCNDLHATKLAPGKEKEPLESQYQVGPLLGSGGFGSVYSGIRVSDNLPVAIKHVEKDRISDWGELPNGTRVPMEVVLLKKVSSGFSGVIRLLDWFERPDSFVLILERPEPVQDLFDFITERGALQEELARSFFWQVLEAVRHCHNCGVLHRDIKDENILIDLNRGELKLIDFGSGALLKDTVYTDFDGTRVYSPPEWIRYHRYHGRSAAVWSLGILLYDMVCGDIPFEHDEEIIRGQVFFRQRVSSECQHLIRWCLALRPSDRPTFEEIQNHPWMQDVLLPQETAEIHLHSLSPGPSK

On to `Cc1cncc(-c2cc3c(cn2)cnn3-c2ccc(C#N)c(N3CCC[C@H](N)C3)n2)n1` [Compound 201, (S)-2-(3-aminopiperidin-1-yl)-6-(6-(6-methylpyrazin-2-yl)-1H-pyrazolo[4,3-c]pyridin-1-yl)nicotinonitrile], for which the figures for the Ki on PIM1, on PIM2 and on PIM3 were 0.068 nM, 0.286 nM and 0.02 nM, respectively. Also, the half-maximal inhibitory concentration (IC50) with BaF3 PIM1 cells turned out to be 490 nM. Moreover, the concentration giving a half-maximal response (EC50) in experiment [1] (MM1.S cells, 72 hours) was found to be 1100 nM.

On to `FC(F)c1cncc(-c2cc3c(cn2)cnn3-c2cccc(N3CCNCC3)n2)n1` [Compound 279, 6-(6-(difluoromethyl)pyrazin-2-yl)-1-(6-(piperazin-1-yl)pyridin-2-yl)-1H-pyrazolo[4,3-c]pyridine trifluoroacetate], for which the figures for the Ki on PIM1, at PIM2 and at PIM3 were 0.229 nM, 3.99 nM and 0.132 nM, respectively. Further, in the experiment with BaF3 PIM1 cells, the IC50 amounted to 622 nM. For the same compound, the EC50 in experiment [1] (MM1.S cells, 72 hours) worked out at 2300 nM.

As to `c1cc(N2CCNCC2)nc(-n2ncc3cnc(-c4cncc(N5CCC5)n4)cc32)c1` [Compound 284, 6-(6-(azetidin-1-yl)pyrazin-2-yl)-1-(6-(piperazin-1-yl)pyridin-2-yl)-1H-pyrazolo[4,3-c]pyridine], the Ki worked out at 0.02 nM at PIM1, 1.83 nM on PIM2 and 0.025 nM on PIM3. Further, the half-maximal inhibitory concentration (IC50) in the experiment with BaF3 PIM1 cells was determined as 385 nM. The EC50 in experiment [1] (setting [2]) stood at 4600 nM.

Turning to `OC1CN(c2cncc(-c3cc4c(cn3)cnn4-c3cccc(N4CCNCC4)n3)n2)C1` [Compound 281, 1-(6-(1-(6-(piperazin-1-yl)pyridin-2-yl)-1H-pyrazolo[4,3-c]pyridin-6-yl)pyrazin-2-yl)azetidin-3-ol], the Ki worked out at 0.048 nM on PIM1, 3.37 nM at PIM2 and 0.064 nM at PIM3. Further, the IC50 in the experiment on BaF3 PIM1 cells was 695 nM. In addition, the EC50 in experiment [1] (setting [2]) was determined as 16000 nM.

Turning to `OCCOc1cncc(-c2cc3c(cn2)cnn3-c2cccc(N3CCNCC3)n2)n1` [Compound 278, 2-((6-(1-(6-(piperazin-1-yl)pyridin-2-yl)-1H-pyrazolo[4,3-c]pyridin-6-yl)pyrazin-2-yl)oxy)ethanol dihydrochloride], the Ki on PIM1 stood at 0.163 nM; on PIM2, 2.62 nM; on PIM3, 0.105 nM. For the same compound, the IC50 in the experiment with BaF3 PIM1 cells is 261 nM. Further, in experiment [1] (MM1.S, 72 h), the EC50 was more than 6200 nM.

Regarding `CCc1cncc(-c2cc3c(cn2)cnn3-c2cccc(N3CCNCC3)n2)n1` [Compound 149, 6-(6-ethylpyrazin-2-yl)-1-(6-piperazin-1-yl-2-pyridyl)pyrazolo[4,3-c]pyridine], the results for the Ki at PIM1, on PIM2 and on PIM3 were 0.058 nM, 0.678 nM and 0.048 nM, respectively. Besides, the concentration for half-maximal inhibition (IC50) with BaF3 PIM1 cells was determined as 240 nM. For the same compound, the EC50 in experiment [1] (setting [2]) is 4700 nM.

On to `CS(=O)(=O)CCn1cc(-c2cc3c(cn2)cnn3-c2cccc(N3CCCNCC3)n2)cn1` [Compound 157, 1-(6-(1,4-Diazepan-1-yl)pyridin-2-yl)-6-(1-(2-(methylsulfonyl)ethyl)-1H-pyrazol-4-yl)-1H-pyrazolo[4,3-c]pyridine], for which the results for the inhibition constant (Ki) at PIM1, on PIM2 and on PIM3 were 0.087 nM, 6.2 nM and 0.055 nM, respectively. Besides, the IC50 in the experiment on BaF3 PIM1 cells is 2800 nM. In experiment [1] (setting [2]), the EC50 came out at 4000 nM.

On to `Cc1cncc(-c2cc3c(cn2)cnn3-c2ccc(CO)c(N3CCC[C@H](N)C3)n2)n1` [Compound 218, (S)-(2-(3-aminopiperidin-1-yl)-6-(6-(6-methylpyrazin-2-yl)-1H-pyrazolo[4,3-c]pyridin-1-yl)pyridin-3-yl)methanol], for which the Ki amounted to 0.06 nM at PIM1, 0.394 nM at PIM2 and 0.054 nM at PIM3. Also, the 50% inhibitory concentration (IC50) in the experiment with BaF3 PIM1 cells amounted to 212 nM. Besides, the concentration giving a half-maximal response (EC50) in experiment [1] (MM1.S cells, 72 hours) worked out at 574 nM.

Turning to `OCCCc1cncc(-c2cc3c(cn2)cnn3-c2cccc(N3CCNCC3)n2)n1` [Compound 301, 3-(6-(1-(6-(piperazin-1-yl)pyridin-2-yl)-1H-pyrazolo[4,3-c]pyridin-6-yl)pyrazin-2-yl)propan-1-ol], the values for the Ki at PIM1, on PIM2 and at PIM3 were 0.034 nM, 0.446 nM and 0.018 nM, respectively. The concentration for half-maximal inhibition (IC50) in the experiment on BaF3 PIM1 cells was 781 nM. The EC50 in experiment [1] (MM1.S cells, 72 hours) worked out at 4000 nM.

On to `C#Cc1cncc(-c2cc3c(cn2)cnn3-c2cccc(N3CCNCC3)n2)n1` [Compound 315, 6-(6-ethynylpyrazin-2-yl)-1-(6-(piperazin-1-yl)pyridin-2-yl)-1H-pyrazolo[4,3-c]pyridine], for which the figures for the inhibitory constant (Ki) at PIM1, at PIM2 and at PIM3 were 0.136 nM, 1.72 nM and 0.057 nM, respectively. Moreover, the concentration for half-maximal inhibition (IC50) with BaF3 PIM1 cells worked out at 2000 nM. Further, the EC50 in experiment [1] (setting [2]) worked out at 696 nM.

As for `Cn1ncc(-c2cc3c(cn2)cnn3-c2ccccc2F)c1N1CCC(N)CC1` [Compound 316, 1-(4-(1-(2-fluorophenyl)-1H-pyrazolo[4,3-c]pyridin-6-yl)-1-methyl-1H-pyrazol-5-yl)piperidin-4-amine], the inhibition constant Ki on PIM1 came out at 15.5 nM; at PIM2 it was 336 nM; at PIM3 it was 47.5 nM. Moreover, the IC50 with BaF3 PIM1 cells was more than 25000 nM. The half-maximal effective concentration (EC50) in experiment [1] (setting [2]) is more than 25000 nM.

With `Cc1cncc(-c2cc3c(cn2)cnn3-c2ccc(C)c(N3CCC[C@H](N)C3)n2)n1` [Compound 205, (S)-1-(3-methyl-6-(6-(6-methylpyrazin-2-yl)-1H-pyrazolo[4,3-c]pyridin-1-yl)pyridin-2-yl)piperidin-3-amine], the inhibition constant (Ki) at PIM1 was found to be 0.018 nM; on PIM2, 0.142 nM; at PIM3 it was 0.014 nM. In addition, in the experiment with BaF3 PIM1 cells, the half-inhibitory concentration (IC50) is 278 nM. For the same compound, in experiment [1] (setting [2]), the EC50 was determined as 1200 nM.

For the compound `c1cc(N2CCCNCC2)nc(-n2ncc3cnc(-c4cnn(C5CCC5)c4)cc32)c1` [Compound 147, 1-(6-(1,4-Diazepan-1-yl)pyridin-2-yl)-6-(1-cyclobutyl-1H-pyrazol-4-yl)-1H-pyrazolo[4,3-c]pyridine], the Ki on PIM1 came to 0.213 nM; at PIM2, 3.92 nM; at PIM3, 0.259 nM. For the same compound, the IC50 with BaF3 PIM1 cells turned out to be 869 nM. In experiment [1] (MM1.S cells, 72 hours), the EC50 was 2700 nM.

`OCc1cncc(-c2cc3c(cn2)cnn3-c2cccc(N3CCNCC3)n2)n1` [Compound 273, (6-(1-(6-(piperazin-1-yl)pyridin-2-yl)-1H-pyrazolo[4,3-c]pyridin-6-yl)pyrazin-2-yl)methanol dihydrochloride]: the inhibition constant Ki on PIM1 turned out to be 0.117 nM; on PIM2, 2.63 nM; on PIM3 it was 0.036 nM. The half-maximal inhibitory concentration (IC50) in the experiment with BaF3 PIM1 cells stood at 629 nM. Moreover, in experiment [1] (MM1.S, 72 h), the EC50 came out at 5500 nM.

Consider `c1cc(N2CCCNCC2)nc(-n2ncc3cnc(-c4cnn(C5CC5)c4)cc32)c1` [Compound 174, 1-(6-(1,4-Diazepan-1-yl)pyridin-2-yl)-6-(1-cyclopropyl-1H-pyrazol-4-yl)-1H-pyrazolo[4,3-c]pyridine], for which the Ki at PIM1 was 0.069 nM; on PIM2 it was 0.978 nM; at PIM3, 0.079 nM. The IC50 in the experiment with BaF3 PIM1 cells turned out to be 271 nM. Besides, in experiment [1] (MM1.S cells, 72 hours), the EC50 came out at 3100 nM.
